From patent US20050106730A1, “Compositions and methods utilizing stable reporter cell lines for detection of pathway-specific signal transduction” (priority 1999, published 2005)

Key:
[1] = test system: cAMP/CREB pathway (GAL4-CREB fusion); experiment: Luciferase reporter assay in RCLH-CREB stable reporter cells treated with extracellular stimuli; assay type: cell-based, human; settings: in the presence of 100 uM forskolin, 5 hours
[2] = test system: MAPK pathway converging on Elk1 (GAL4-Elk1 fusion); experiment: Luciferase reporter assay in RCLH-Elk1 stable reporter cells treated with extracellular stimuli; settings: separate experiment

Molecule | Stimulation of luciferase expression [1] | Activation of MAPK pathways [2]
CCCCCCCCCCCCCC(=O)O[C@@H]1[C@@H](C)[C@@]2(O)[C@@H](C=C(CO)C[C@]3(O)C(=O)C(C)=C[C@@H]23)[C@@H]2C(C)(C)[C@]12OC(C)=O [PMA, phorbol 12-myristate 13-acetate] | approximately 70 fold | –
TGF-α: growth factor found to activate MAPK pathways | – | also activates MAPK pathways
